These results are taken from patent publication US20140296154A1, “METHOD OF PREVENTING DEVELOPMENT OF PSORIATIC LESIONS” (YALE UNIVERSITY, priority 2011, published 2014).

Data set [1] deals with A20. The data set is described as follows: Western blot of A20 in skin of WT and PSX mice with and without TPA. Format: in vivo, mouse. Particulars: topical TPA; wild-type and old (24-week) PSX mice compared to young (4-week) PSX mice.
The nature of data set [2]: Topical delivery of FITC-labeled NBD peptide into skin. Format: in vivo. From the text:
To assess the ability to deliver the NBD peptide of SEQ ID NO: 122 topically, the peptide was conjugated to the fluorophore FITC, and the labeled peptide prepared in two different formulations. The first formulation consisted of the labeled peptide dissolved in vaseline ointment, and the second formulation consisted of the labeled peptide dissolved in DMSO.

The test system of data set [3] is PSX mice (K14-VEGF transgenic psoriasis model). The data set is described as follows: Ear thickness / psoriatic lesion development in PSX (homozygous K14-VEGF transgenic) mice. The note with it: intraperitoneal 50 micrograms twice weekly; for mean ear thickness / psoriatic skin lesions: older PSX mice with fully developed psoriatic lesions, 8 weeks, vs untreated control. The class given is in vivo, mouse. An excerpt:
This K14-VEGF mouse was backcrossed to homozygosity for the transgene(s), generating a mouse model that develops psoriasiform lesions on the ears spontaneously and after trauma. These are referred to as PSX mice. […] FIGS. 3A-D illustrate the PSX transgenic mouse model used in screening psoriasis treatments in accordance with the present invention. […] FIGS. 3C and 3D show pathology of the mouse model.
The NF-κB inhibitor used for the treatments in this example was the fusion protein drqikiwfqnrrmkwkkTALDWSWLQTE (SEQ ID NO: 122), where lower case letters indicate D-amino acid residues and upper case letters indicate L-amino acid residues. This inhibitor includes a translocation domain of Antennapedia and an Nemo Binding Domain (NBD) peptide.
The peptide was formulated and administered as an intraperitoneal injection of 50 micrograms to either PSX mice after they had fully developed psoriatic skin lesions (FIG. 7) or prior to the development of psoriatic plaques when the ears were still uninvolved (FIG. 8). Assessment of the development of psoriatic lesions was measured by the thickness of ear tissue.

Square brackets hold non-standard residues; d marks the D form. Ends that are not written are not given here.

Regarding `CCCCCCCCCCCCCC(=O)O[C@@H]1[C@@H](C)[C@@]2(O)[C@@H](C=C(CO)C[C@]3(O)C(=O)C(C)=C[C@@H]23)[C@@H]2C(C)(C)[C@]12OC(C)=O` [TPA, 12-O-tetradecanoyl phorbol-13-acetate], the A20 protein induction entry in data set [1] is recorded as “robust induction”.

On to “FITC-conjugated NBD peptide of SEQ ID NO: 122: NBD peptide of SEQ ID NO: 122 conjugated to the fluorophore FITC, in vaseline ointment or DMSO ([dD][dR][dQ][dI][dK][dI][dW][dF][dQ][dN][dR][dR][dM][dK][dW][dK][dK]TALDWSWLQTE; also: FITC conjugate, site not given here)”, for which the “peptide localisation in skin after topical administration” value in data set [2] (peptide in DMSO) was “uptake is prevalent among the cells in both the epidermis and dermis”; in data set [2] (peptide in vaseline ointment), “limited to the stratum corneum”.

Regarding “drqikiwfqnrrmkwkkTALDWSWLQTE ([dD][dR][dQ][dI][dK][dI][dW][dF][dQ][dN][dR][dR][dM][dK][dW][dK][dK]TALDWSWLQTE) [SEQ ID NO: 122]”, the results for the “mean ear thickness / psoriatic skin lesions” value in data set [3] (listed as NF-κB inhibitor) and in data set [3] (listed as peptide) were “no change” and “no effect”, respectively. Also, the “thickening of the ear and development of phenotypic lesions of psoriasis” value in data set [3] (young PSX mice treated prior to development of psoriatic plaques, vs vehicle (DMSO)) is recorded as “prevented the thickening of the ear”.
